From US12428403B2, “N-(heterocyclyl and heterocyclylalkyl)-3-benzylpyridin-2-amine derivatives as SSTR4 agonists” (Takeda Pharmaceutical Company Limited, priority 2020, dated 2025) come the findings set out here.

Assay [1] has as its target T1, SSTR4 (Homo sapiens, UniProt P31391). Description: SSTR4 I-125 somatostatin competition binding assay (CHO-K1 membranes). Details: host or cells: CHO-K1. Conditions: competition with I-125 labeled somatostatin, membranes from CHO-K1 overexpressing SSTR4; read-out: SSTR4 Binding pIC50 (converted). An excerpt: SSTR4I-125 Somatostatin Competition Binding Assay
Membranes from CHO-K1 cells overexpressing SSTR4 are purchased from Perkin Elmer (catalog number ES-524-M400UA). […] The scintillator sheets are melted to filters using a heat block.

For assay [2], the target named is SSTR1 (Homo sapiens, UniProt P30872). Description: biochemical.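 Also: competitive binding to membranes of CHO-K1 cells overexpressing SSTR1, incubated 60 min at room temperature, radioactivity read by scintillation counting after filtration.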
SSTR1, sequence (P30872 whole entry): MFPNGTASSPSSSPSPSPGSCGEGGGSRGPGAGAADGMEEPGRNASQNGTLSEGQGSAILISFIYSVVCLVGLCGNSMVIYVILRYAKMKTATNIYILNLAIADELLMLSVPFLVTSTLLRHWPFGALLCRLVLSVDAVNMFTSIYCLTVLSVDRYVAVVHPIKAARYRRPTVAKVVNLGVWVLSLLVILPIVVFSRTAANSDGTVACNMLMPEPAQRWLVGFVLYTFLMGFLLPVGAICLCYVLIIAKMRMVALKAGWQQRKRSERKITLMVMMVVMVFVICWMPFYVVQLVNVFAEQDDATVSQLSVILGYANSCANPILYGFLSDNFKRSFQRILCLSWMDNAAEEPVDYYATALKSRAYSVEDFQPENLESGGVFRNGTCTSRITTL
Assay [3] concerns the target T1, SSTR4. Description: cell-based.

Structures are written as SMILES.
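For EC50 in this document: CHO-K1 cells overexpressing SSTR4, reduction of forskolin-driven cAMP after 30 min compound exposure at room temperature, cAMP read by HTRF LANCE Ultra kit.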

T1 sequence (P31391 whole entry): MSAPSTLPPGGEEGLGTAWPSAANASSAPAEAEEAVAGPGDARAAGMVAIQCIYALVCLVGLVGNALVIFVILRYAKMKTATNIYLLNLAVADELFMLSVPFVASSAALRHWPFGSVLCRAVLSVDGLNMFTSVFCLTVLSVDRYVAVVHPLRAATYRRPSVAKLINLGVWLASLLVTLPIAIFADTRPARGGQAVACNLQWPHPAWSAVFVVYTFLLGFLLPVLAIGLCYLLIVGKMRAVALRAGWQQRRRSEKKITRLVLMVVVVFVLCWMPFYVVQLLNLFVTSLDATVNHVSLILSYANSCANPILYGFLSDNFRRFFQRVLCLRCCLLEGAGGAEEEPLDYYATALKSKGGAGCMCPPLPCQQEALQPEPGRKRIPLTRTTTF

As for `Fc1ccc(Cc2nnc(C3CC3)nc2NCCN2CCC2)cc1` [Example 138, N-(2-(azetidin-1-yl)ethyl)-3-cyclopropyl-6-(4-fluorobenzyl)-1,2,4-triazin-5-amine], the IC50 in assay [1] was 89.1 nM; in assay [2], 5010 nM. This molecule had an EC50 in assay [3] of 16.2 nM.

Take `Cc1cnc(-c2nc(C(C)c3ccc(F)cc3)c(NCCN3CCCC3)nc2C)o1` (stereo not drawn) [Example 129, 3-(1-(4-fluorophenyl)ethyl)-6-methyl-5-(5-methyloxazol-2-yl)-N-(2-(pyrrolidin-1-yl)ethyl)pyrazin-2-amine]: the IC50 is 35.5 nM in assay [1] and 2290 nM in assay [2]. In assay [3], this molecule gave an EC50 of 10 nM.

For `C[C@H](c1ccc(F)cc1)c1nc(C(=O)N2CCCC2)cnc1NCCN1CCCC1` [Example 8, (R)-(6-(1-(4-fluorophenyl)ethyl)-5-((2-(pyrrolidin-1-yl)ethyl)amino)pyrazin-2-yl)(pyrrolidin-1-yl)methanone], the IC50 in assay [1] was 141 nM; in assay [2], 1950 nM. The response in assay [3] was half-maximal at 31.6 nM (EC50).

As for `Cc1nnc([C@H](C)c2ccc(F)cc2)c(NCCN2CCC2)n1` (single isomer, unassigned) [Example 133], the IC50 in assay [1] is 209 nM; in assay [2], 30200 nM. Also, the concentration for a half-maximal effect (EC50) in assay [3] was 42.7 nM.

Consider `CNC(=O)c1nc(Cc2ccc(F)cc2)c(NCCN2CCCC2)nc1C` [Example 43, 6-(4-fluorobenzyl)-N,3-dimethyl-5-((2-(pyrrolidin-1-yl)ethyl)amino)pyrazine-2-carboxamide], for which the IC50 in assay [1] was 39.8 nM; in assay [2], 9770 nM. For the same molecule, the response in assay [3] was half-maximal at 12.6 nM (EC50).

For `CNC(=O)c1cnc(NCCN2CCCC2)c([C@@H](C)c2ccc(F)cc2)n1` (single isomer, unassigned) [Example 23], the IC50 was 63.1 nM in assay [1] and 13200 nM in assay [2]. The EC50 in assay [3] was 25.1 nM.

Take `CO[C@@H]1CCN(C(=O)c2cnc(NCCN3CCCC3)c([C@H](C)c3ccc(F)cc3)n2)C1` [Example 11, (6-((R)-1-(4-fluorophenyl)ethyl)-5-((2-(pyrrolidin-1-yl)ethyl)amino)pyrazin-2-yl)((R)-3-methoxypyrrolidin-1-yl)methanone]: the IC50 was 214 nM in assay [1] and 3470 nM in assay [2]. This molecule showed a half-maximal effective concentration (EC50) in assay [3] of 28.8 nM.

Take `Cc1nc(NCCN2CCCC2)c(Cc2ccc(F)cc2)nc1C(=O)N(C)C` [Example 42, 6-(4-fluorobenzyl)-N,N,3-trimethyl-5-((2-(pyrrolidin-1-yl)ethyl)amino)pyrazine-2-carboxamide]: the IC50 is 138 nM in assay [1] and 10000 nM in assay [2]. Moreover, a half-maximal effect in assay [3] (EC50) was put at 12.6 nM.
